# Laboratory results: patent publication US12037322B2, “AHR agonists” (Eli Lilly and Company, priority 2021, dated 2024)
# Molecular target: T1, hAHR (Homo sapiens, UniProt P35869)
# T1 construct: expressed in transfected cells
# T1 sequence (P35869 11-848): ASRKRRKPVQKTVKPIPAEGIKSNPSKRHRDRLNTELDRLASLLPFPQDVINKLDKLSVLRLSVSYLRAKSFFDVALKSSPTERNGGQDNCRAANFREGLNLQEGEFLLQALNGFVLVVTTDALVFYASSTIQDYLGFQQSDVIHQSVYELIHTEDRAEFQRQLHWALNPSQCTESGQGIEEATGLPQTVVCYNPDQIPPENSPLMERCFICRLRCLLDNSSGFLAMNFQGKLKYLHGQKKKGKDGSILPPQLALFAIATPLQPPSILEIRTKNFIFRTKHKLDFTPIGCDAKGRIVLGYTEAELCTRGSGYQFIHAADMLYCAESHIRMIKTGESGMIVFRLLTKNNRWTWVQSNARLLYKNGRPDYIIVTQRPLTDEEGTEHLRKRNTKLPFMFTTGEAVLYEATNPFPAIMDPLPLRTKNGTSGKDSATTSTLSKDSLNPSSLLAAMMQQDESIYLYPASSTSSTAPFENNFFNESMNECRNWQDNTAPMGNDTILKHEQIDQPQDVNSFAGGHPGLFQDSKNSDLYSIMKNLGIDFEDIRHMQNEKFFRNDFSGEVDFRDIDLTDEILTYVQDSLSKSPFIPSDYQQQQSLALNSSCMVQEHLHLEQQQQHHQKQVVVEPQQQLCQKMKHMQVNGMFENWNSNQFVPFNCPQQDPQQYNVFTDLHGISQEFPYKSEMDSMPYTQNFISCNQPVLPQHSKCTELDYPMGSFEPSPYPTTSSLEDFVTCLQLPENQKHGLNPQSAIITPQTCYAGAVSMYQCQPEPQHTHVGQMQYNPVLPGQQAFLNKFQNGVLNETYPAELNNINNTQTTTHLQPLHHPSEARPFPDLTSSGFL
# Assay: hAHR nuclear translocation assay
# Assay type: cell-based
# Details: Jump-In T-REx HEK293 cells expressing AhR-EGFP; 45 min incubation; ratio of EGFP intensity in nuclear over cytosol; 20-point curve
# Method in brief: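 HEK293 cells with doxycycline-induced AhR-EGFP fusion treated 45 min at 37° C with compound (20-point 1:2 series, 0.2% DMSO) in DMEM/0.1% BSA, then methanol-fixed. Nuclear-to-cytosolic EGFP ratio imaged by high-content microscopy and fitted to a 4-parameter logistic for agonist potency.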
row,Structure (SMILES),EC50 [nM]
1,"CC1CCc2c1c(O)c(C(=O)Nc1ccc(F)cn1)c(=O)n2C (single isomer, unassigned) [Example 99, N-(5-Fluoro-2-pyridyl)-4-hydroxy-1,5-dimethyl-2-oxo-6,7-dihydro-5H-cyclopenta[b]pyridine-3-carboxamide]",2.12
2,"CC1CCc2c1c(O)c(C(=O)Nc1ncc(F)cn1)c(=O)n2C (single isomer, unassigned) [Example 96, N-(5-Fluoropyrimidin-2-yl)-4-hydroxy-1,5-dimethyl-2-oxo-6,7-dihydro-5H-cyclopenta[b]pyridine-3-carboxamide]",0.6
3,"CC1CCc2c1c(O)c(C(=O)Nc1ncc(C(F)(F)F)cn1)c(=O)n2C (stereo not drawn) [Example 32, 4-Hydroxy-1,5-dimethyl-2-oxo-N-[5-(trifluoromethyl)pyrimidin-2-yl]-6,7-dihydro-5H-cyclopenta[b]pyridine-3-carboxamide]",0.845
4,"Cn1c2c(cc(C(=O)Nc3ncc(F)cn3)c1=O)C(C)(C)CC2 [Example 14, N-(5-Fluoropyrimidin-2-yl)-1,5,5-trimethyl-2-oxo-6,7-dihydrocyclopenta[b]pyridine-3-carboxamide]",26.8
5,"CC1Cc2c(O)c(C(=O)Nc3ccccn3)c(=O)n(C)c2C1 (single isomer, unassigned) [Example 88, 4-Hydroxy-1,6-dimethyl-2-oxo-N-(2-pyridyl)-6,7-dihydro-5H-cyclopenta[b]pyridine-3-carboxamide]",0.897
6,"COc1cnc(NC(=O)c2c(O)c3c(n(C)c2=O)CCC3C)nc1 (single isomer, unassigned) [Example 101, 4-Hydroxy-N-(5-methoxypyrimidin-2-yl)-1,5-dimethyl-2-oxo-6,7-dihydro-5H-cyclopenta[b]pyridine-3-carboxamide]",6.01
7,"Cn1c2c(c(O)c(C(=O)Nc3ccc(F)cn3)c1=O)C(C)(C)CC2 [Example 44, N-(5-Fluoro-2-pyridyl)-4-hydroxy-1,5,5-trimethyl-2-oxo-6,7-dihydrocyclopenta[b]pyridine-3-carboxamide]",2.38
8,"CC1CCc2c1c(O)c(C(=O)Nc1ncccn1)c(=O)n2C (single isomer, unassigned) [Example 85, 4-Hydroxy-1,5-dimethyl-2-oxo-N-pyrimidin-2-yl-6,7-dihydro-5H-cyclopenta[b]pyridine-3-carboxamide]",4.1
9,"Cn1c2c(cc(C(=O)Nc3ncccn3)c1=O)C(C)(C)CC2 [Example 46, 1,5,5-Trimethyl-2-oxo-N-pyrimidin-2-yl-6,7-dihydrocyclopenta[b]pyridine-3-carboxamide]",31.5
10,"Cn1c2c(c(O)c(C(=O)Nc3ncc(F)cn3)c1=O)C(C)(C)CC2 [Example 43, N-(5-Fluoropyrimidin-2-yl)-4-hydroxy-1,5,5-trimethyl-2-oxo-6,7-dihydrocyclopenta[b]pyridine-3-carboxamide]",0.973

# Results, then the compound that gave them:
row,EC50 [nM],Structure (SMILES)
1,16.2,"Cn1c2c(cc(C(=O)Nc3ccccn3)c1=O)CC(C)(C)C2 [Example 45, 1,6,6-Trimethyl-2-oxo-N-(2-pyridyl)-5,7-dihydrocyclopenta[b]pyridine-3-carboxamide]"
2,1.93,"CC1CCc2c1cc(C(=O)Nc1nccs1)c(=O)n2C (stereo not drawn) [Example 15, 1,5-Dimethyl-2-oxo-N-thiazol-2-yl-6,7-dihydro-5H-cyclopenta[b]pyridine-3-carboxamide]"
3,2.44,"CC1CCc2c1cc(C(=O)Nc1ccc(F)cn1)c(=O)n2C (single isomer, unassigned) [Example 56, N-(5-Fluoro-2-pyridyl)-1,5-dimethyl-2-oxo-6,7-dihydro-5H-cyclopenta[b]pyridine-3-carboxamide]"
4,17.7,"C[C@H]1CCc2c1cc(C(=O)Nc1ncco1)c(=O)n2C [Example 75, (5S)-1,5-Dimethyl-N-oxazol-2-yl-2-oxo-6,7-dihydro-5H-cyclopenta[b]pyridine-3-carboxamide]"
5,2.45,"C[C@H]1CCc2c1cc(C(=O)Nc1ncc(Cl)cn1)c(=O)n2C [Example 24, (5S)-N-(5-Chloropyrimidin-2-yl)-1,5-dimethyl-2-oxo-6,7-dihydro-5H-cyclopenta[b]pyridine-3-carboxamide]"
6,1.91,"C[C@@H]1CCc2c1cc(C(=O)Nc1ncc(Cl)cn1)c(=O)n2C [Example 25, (5R)-N-(5-Chloropyrimidin-2-yl)-1,5-dimethyl-2-oxo-6,7-dihydro-5H-cyclopenta[b]pyridine-3-carboxamide]"
7,0.525,"C[C@@H]1CCc2c1cc(C(=O)Nc1ccccc1)c(=O)n2C [Example 66, (5R)-1,5-Dimethyl-2-oxo-N-phenyl-6,7-dihydro-5H-cyclopenta[b]pyridine-3-carboxamide]"
8,9.78,"CC1CCc2c1cc(C(=O)Nc1ncc(F)cn1)c(=O)n2C (stereo not drawn) [Example 1, N-(5-Fluoropyrimidin-2-yl)-1,5-dimethyl-2-oxo-6,7-dihydro-5H-cyclopenta[b]pyridine-3-carboxamide]"
